Data as given in patent US20240325539A1, “METHODS AND COMPOSITIONS FOR TREATING EPSTEIN BARR VIRUS-ASSOCIATED CANCER” (The Chancellor, Masters and Scholars of the University of …, priority 2020, published 2024).

How the values were obtained:
[1] = system: AGS-EBV cells; assay: Zta expression (immunofluorescence and Western blot); assay type: cell-based, human; conditions: for Zta expression: 5 μM SAHA, 5 μM chidamide, 2.5 μM CXD101
Method: (§1) Protein concentration was determined by the Bradford assay.

[2] = system: Burkitt lymphoma cell lines Namalwa, Raji, and Akata; assay: Western blot for Zta and H3-ac in Burkitt lymphoma cell lines; assay type: cell-based, human; conditions: naturally infected Burkitt lymphoma cell lines
Method: as §1
(§2) CXD101 is currently undergoing clinical trials (Eyre, T. A., et al. (2019). Cancer 125, 99-108.), and chidamide is approved in China by the National Medical Products Administration (NMPA) for treatment of peripheral T-cell lymphoma (Xu, Y., et al. (2017). Drugs of Today; 53.) and breast cancer (Jiang, Z., et al. (2018). Annals of Oncology; 29.). Therefore, chidamide and CXD101 were used to treat naturally-infected Burkitt lymphoma cell lines Namalwa, Raji, and Akata, or the ex vivo infected lymphoblastoid cell line PD-LCL in parallel with YCCEL1 cells. Romidepsin was used to treat the same panel of cells. […] Zta expression level in ex vivo infected B cell line PD-LCL is detectable in DMSO treated cells and it is not affected after HDACi treatment. All HDACis used induced detectable amounts of H3-ac, with cell line-dependent variation (FIG. 1E). To assess the extent of EBV reactivation, mRNA expression of several immediate-early, early, and late lytic genes was analysed (FIG. 9E). […] Up to 5-10% of YCCEL1 and SNU719 cells were positive for late Viral Capsid Antigen (VCA) after chidamide or CXD101 treatment, but not SAHA-treatment. […] Both benzamide- and hydroxymate-based HDACi can induce EBV reactivation in gastric epithelial cancer cells, but benzamide-based HDACis are generally less toxic than hydroxymate-based HDACi.

[3] = system: PD-LCL cells; assay: Western blot for Zta in lymphoblastoid cell line; assay type: cell-based, human; conditions: detectable in DMSO treated cells
Method: as §1, §2

[4] = system: PBMCs from an EBV+ healthy donor; assay: IFNγ ELISpot of ex vivo EBV-specific CD8+ T cell responses; assay type: cell-based, human; conditions: PBMCs with pool of EBV epitopes, 12 hours; range of doses
From the text: To be able to effectively “kick” EBV+GC cells into Zta+ abortive EBV reactivation lytic cycle presented us with an opportunity to “kill” the reactivated EBV+ cancer cells by harnessing the host's immune system, Zta specific T cells in particular as Zta is highly immunogenic (Pudney, V. A., et al. (2005). J Exp Med 201, 349-360) and many EBV seropositive individuals have Zta memory T cells. This study was set out to test whether HDACi have any direct impacts on CD8+ T cell responses to EBV viral antigens. Peripheral blood mononuclear cells (PBMCs) from an EBV+ healthy donor were stimulated with a pool of pre-determined EBV epitopes in the presence or absence of HDACi for 12 hours, and ex vivo EBV-specific CD8+ T cell responses were determined by an IFNγ ELISpot assay. […] In parallel, the optimal dose of each HDACi for AGS-EBV to minimize cell toxicity versus their ability to induce Zta expression was determined (FIG. 15A). To provide a proof of principle, whether reactivation of Zta by HDACi could sensitize tumor cells for recognition and killing by Zta-specific CD8+ T cells was subsequently tested. […] The TCR gene was retrovirally transduced into a TCR-negative T cell line (SKW3) or primary human CD8+ T cells for functional readouts, including cytokine production and killing of the tumor cells.

[5] = system: YCCEL1 cells; assay: High content imaging of Zta-positive cells (immunofluorescence)
Method: Cells were seeded on 13 mm coverslips or 96 well-plates 24 h prior to the treatment. After washing with PBS, cells were fixed by the addition of 4% formaldehyde (Life Technologies) in PBS for 10 min, washed three times with PBS, and incubated with 0.1% Triton X-100 for 20 min. After three more washes, coverslips were incubated with Signal Enhancer for 30 min. Following one wash, cells were incubated with the primary antibody diluted in antibody diluent (Dako) with a background reducing agent for 90 min. After washing three times, coverslips were incubated with a secondary antibody solution containing DAPI diluted in antibody diluent for 1 h in the dark. Coverslips were washed three times with PBS and once in purified water before coverslips were mounted on Polysine Microscope Adhesion slides with ProLong Gold Antifade Mountant (Life Technologies). Cells affixed on slides were visualized using a Zeiss LSM 710 laser scanning confocal microscope, while cells on 96 well plates were visualized using the Operetta High Content Screening System (PerkinElmer).
Experiments were run in duplicate. Liquid handling for cell plating, drug treatment, and cell fixation was performed using a JANUS PerkinElmer Automated Workstation (PerkinElmer). […] All other staining steps were performed with a FlexDrop PLUS (PerkinElmer). Cells were visualized using a GE IN Cell Analyzer 6000 (GE Healthcare Life Sciences) with a 10× objective. Percentages of Zta-positive cells within the wells were assessed with a protocol established within the Columbus software (PerkinElmer).
The readout was percentage of cells positive for the immediate-early viral transcription factor Zta, as assessed by immunofluorescence staining and confocal microscopy.

[6] = system: AGS-EBV cells; assay: Killing of AGS-EBV cells by Zta-specific TCR-T cells (IncuCyte, Cytotox Red); assay type: cell-based, human; conditions: for cell death of AGS-EBV cells: HDACi pre-treatment, then primary T cells expressing TCR4, after 8 h of co-culture, compared to DMSO
Method: EBV+GC cells were treated with either 2.5 μM of CXD101, 5 μM of chidamide, or 5 μM of SAHA, and DMSO was used as a negative control. Approximately 10×10^5 AGS-EBV cells were plated in […] the day before treatment to allow 50% confluence. The next day, the media was removed, and the cells were treated for 48 hours with the HDACi or DMSO. After 48 hours, the cells were dissociated with trypsin-EDTA and counted. The dissociated cells were plated in the wells of a flat-bottomed 96-well plate and left to adhere for 4-6 hours before the addition of Zta-specific T cells. The IncuCyte S3 Live-Cell analysis system was used to analyze the interactions between the T cells and the HDACi-treated gastric cells over a period of 24 hours. The cells were cultured at an E:T ratio of 10:1. The IncuCyte® Cytotox Red Reagent for counting dead cells was added to each well at the start of incubation. The treated AGS-EBV cells were co-cultured with the HLA-A*02:01-restricted TCR4 primary T cell clones and the HLA-mismatched control clone, TCR9. After 24 hours of incubation, the supernatant was removed from the wells for quantification of cytokines. The ability of the clones to kill the target cells was assessed using the automated IncuCyte analysis software. The Cytotox Red apoptosis marker that was added to the wells at the start of co-culture was taken up by dead cells, and the overlap area of this red fluorescence with larger, very bright GFP cells was measured in μm^2 per replicate well at each set time point.

[7] = system: YCCEL1 cells; assay type: cell-based, human
[8] = system: AGS-EBV cells; assay: RT-qPCR of EBV lytic genes; assay type: cell-based, human
From the text: RNA was extracted from cells using the RNeasy Mini Kit (Qiagen), following the manufacturer's instructions. Possible contamination with genomic DNA was removed by treatment with DNase I according to the manufacturer's instructions. One μg was used to generate cDNA using the SuperScript Reverse Transcriptase III System following the manufacturer's instructions. QuantiTect SYBR Green PCR Kit was used to perform RT-qPCR using the StepOnePlus real-time PCR system (Applied Biosystems). Reactions were performed in duplicate and in a final volume of 20 μL. Relative mRNA abundances were normalized to endogenous glyceraldehyde 3-phosphate dehydrogenase (GAPDH) mRNA levels. Shown qPCR results were analyzed by the ΔΔCt-method, with the threshold cycles being determined by the Applied Biosystems software.

[9] = system: YCCEL1 cells; assay: Western blot for Zta and total acetylation of histone 3; assay type: cell-based, human; conditions: FIGS. 1C and 9D (YCCEL1; SNU719)
Method: as §1

[10] = system: NCC-24 cells; assay: Western blot for p53 and Zta; assay type: cell-based, human; conditions: NCC-24, mutant TP53 (G266R and R273H)

| SMILES | Zta expression [1] | Zta expression [2] | Zta expression level [3] | effect on T cell responses to EBV antigens [4] | Zta+ cells ([5]; 5 μM) | Zta+ cells ([5]; 10 μM) | Zta expression / EBV reactivation ([5]; increasing concentrations (FIG. 1B)) | toxicity induced by T cells ([6]; AGS-EBV, compared to SAHA (P<0.01)) | cell death of AGS-EBV cells [6] | toxicity (cell number relative to DMSO) [7] | activation of lytic genes [8] | induction of Zta expression (Western blot) [9] | total histone 3 acetylation (H3-ac) [9] | Zta expression (Western blot) ([1]; agent alone) | Zta expression [10] |
| --- | --- | --- | --- | --- | --- | --- | --- | --- | --- | --- | --- | --- | --- | --- | --- |
| Cc1nn(C)cc1CN1CCC(c2ccc(C(=O)Nc3ccccc3N)cc2)CC1 [CXD101] | strong activation of Zta expression | none of these HDACi induced Zta expression | not affected | little, if any, inhibitory effect | 36.5% | 40.7% | strong dose-dependent effect on Zta expression | more pronounced | dramatic increase in cell death | low toxicity | comparable activation of lytic genes | – | – | – | – |
| O=C(CCCCCCC(=O)Nc1ccccc1)NO [SAHA] | strong activation of Zta expression | – | – | – | – | – | – | – | dramatic increase in cell death | – | comparable activation of lytic genes | failure | induced detectable H3-ac | – | – |
| COc1ccc(C2=N[C@@H](c3ccc(Cl)cc3)[C@@H](c3ccc(Cl)cc3)N2C(=O)N2CCNC(=O)C2)c(OC(C)C)c1 [nutlin-3a] | – | – | – | – | – | – | – | – | – | – | – | – | – | able to induce high levels of Zta expression | failed to express Zta |
